Literature values, collected in patent US10815228B2, “Aztreonam derivatives and uses thereof” (ARIXA PHARMACEUTICALS, INC., priority 2017, dated 2020).

oral bioavailability (aztreonam, statement in words): poor oral bioavailability
oral bioavailability of aztreonam (orally administered aztreonam): less than 1%
Structure (SMILES): C[C@H]1[C@H](NC(=O)/C(=N/OC(C)(C)C(=O)O)c2csc(N)n2)C(=O)N1S(=O)(=O)O [aztreonam, (2-((((E)-1-(2-aminothiazol-4-yl)-2-(((2S,3S)-2-methyl-4-oxo-1-sulfoazetidin-3-yl)amino)-2-oxoethylidene)amino)oxy)-2-methylpropanoic acid)]
